Experimental data as given in patent publication US9873690B2, “3-indol substituted derivatives, pharmaceutical compositions and methods for use” (Pfizer Inc., priority 2015, dated 2018).

Target: T1, hTDO2 (Homo sapiens, UniProt P48775)
T1 construct: endogenous in cells; host or cells: A172 human brain glioblastoma cells (ATCC CRL-1620)
Assay: Cellular assay for TDO2 activity determination in A172 cells
Assay type: cell-based
Details: human glioblastoma A172 cells naturally expressing hTDO2; overnight incubation; kynurenine by absorbance at 480 nm
Experimental: The compounds of formula I inhibit the activity of human TDO2 in cells that constitutively express TDO2, such as A172 cells. A172 is a cell line derived from human brain glioblastoma cells. The cells are available from the American Type Culture Collection (ATCC®) as CRL-1620™.
The assay (adapted from Pilotte L et al., Proc Natl Acad Sci USA, 2012, 109(7), 2497-502) was performed in 96-well flat bottom plates seeded with human glioblastoma A172 cells, naturally expressing hTDO2 (prepared as described in Tilman et al., Mol Cancer, 2007, 17(6), 80), at a concentration of 1.25×10^4 cells/well in a final volume of 200 μL. To determine TDO, the cells were incubated overnight at 37° C. at 5% CO2 in IMDM (Invitrogen) supplemented with 2% FBS and 2% penicillin/streptomycin in the presence of the compounds of the present invention, at different concentrations.
The plates were then centrifuged 5 min at 1000 rpm, and 100 μL of the supernatant were collected in a conical plate, 30 μL of TCA 30% were added and a further centrifuged at 3000×g for 10 minutes. 100 μL of the supernatant were collected in a flat bottomed plate and 100 μL of 2% (w/v) 4-(dimethylamino)-benzaldehyde in acetic acid and incubated for 5 min at room temperature. Kynurenine concentrations were determined by measuring the absorbance at 480 nm. A standard curve was made with pure kynurenine. The TDO activity was measured as described above using ten serial concentrations of the compounds of the present invention. Data were fitted using the Prism™ software (GraphPad Software, Inc.) using standard parameters.
The biological activity of representative compounds in human brain glioblastoma cells as determined in the above-referenced assay is summarized in the following table: […]

T1 sequence (P48775 whole entry): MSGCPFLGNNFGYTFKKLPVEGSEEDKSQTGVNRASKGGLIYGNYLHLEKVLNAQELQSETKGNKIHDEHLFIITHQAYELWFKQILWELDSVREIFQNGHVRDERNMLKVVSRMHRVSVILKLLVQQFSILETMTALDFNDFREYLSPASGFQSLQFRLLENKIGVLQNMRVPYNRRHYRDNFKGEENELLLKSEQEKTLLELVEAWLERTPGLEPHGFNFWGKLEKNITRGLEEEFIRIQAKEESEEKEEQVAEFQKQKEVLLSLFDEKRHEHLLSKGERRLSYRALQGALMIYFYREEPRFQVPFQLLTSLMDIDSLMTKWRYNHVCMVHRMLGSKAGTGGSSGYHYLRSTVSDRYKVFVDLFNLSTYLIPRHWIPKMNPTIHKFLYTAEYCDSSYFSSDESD

Row | SMILES | IC50 [nM]
1 | CNC(=O)C(N)CN1C(C)c2cc(-c3c[nH]c4cc(F)ccc34)ccc2S1(=O)=O (single isomer, unassigned; (+)) [Example 104, (+) 2-amino-3-(5-(6-fluoro-1H-indol-3-yl)-3-methyl-1,1-dioxidobenzo[d]isothiazol-2(3H)-yl)-N-methylpropanamide] | 120
2 | CNC(=O)C(CN1C(C)c2cc(-c3c[nH]c4cc(F)ccc34)ccc2S1(=O)=O)OC (single isomer, unassigned; (+)) [Example 105, (+)-3-(5-(6-fluoro-1H-indol-3-yl)-3-methyl-1,1-dioxidobenzo[d]isothiazol-2(3H)-yl)-2-methoxy-N-methylpropanamide] | 188
3 | CNC(=O)C(CN1C(C)c2cc(-c3c[nH]c4cc(F)ccc34)ccc2S1(=O)=O)OC (single isomer, unassigned; (+)) [Example 107, (+)-3-(5-(6-fluoro-1H-indol-3-yl)-3-methyl-1,1-dioxidobenzo[d]isothiazol-2(3H)-yl)-2-methoxy-N-methylpropanamide] | 499
4 | CCOC(=O)NCCN1C(C)c2cc(-c3c[nH]c4cc(F)ccc34)ccc2S1(=O)=O (single isomer, unassigned; (+)) [Example 110, (+)-ethyl (2-(5-(6-fluoro-1H-indol-3-yl)-3-methyl-1,1-dioxidobenzo[d]isothiazol-2(3H)-yl)ethyl)carbamate] | 157
5 | CNC(=O)CN1C(C)c2cc(-c3c[nH]c4cc(F)ccc34)ccc2S1(=O)=O (single isomer, unassigned; (+)) [Example 112, (+)-2-(5-(6-fluoro-1H-indol-3-yl)-3-methyl-1,1-dioxidobenzo[d]isothiazol-2(3H)-yl)-Nmethylacetamide] | 142
6 | CC1c2cc(-c3c[nH]c4cc(F)ccc34)ccc2S(=O)(=O)N1CC(=O)N(C)C (single isomer, unassigned; (+)) [Example 114, (+) 2-(5-(6-fluoro-1H-indol-3-yl)-3-methyl-1,1-dioxidobenzo[d]isothiazol-2(3H)-yl)-N,N-dimethylacetamide] | 239
7 | CC1c2cc(-c3c[nH]c4cc(F)ccc34)ccc2S(=O)(=O)N1CC(N)=O (single isomer, unassigned; (+)) [Example 115] | 88
8 | CC1c2cc(-c3c[nH]c4cc(F)ccc34)ccc2S(=O)(=O)N1CCN1CCOCC1 (single isomer, unassigned; (+)) [Example 118, (+)-5-(6-fluoro-1H-indol-3-yl)-3-methyl-2-(2-morpholinoethyl)-2,3-dihydrobenzo[d]isothiazole 1,1-dioxide] | 191
9 | CC1c2cc(-c3c[nH]c4cc(F)ccc34)ccc2S(=O)(=O)N1C1CCNC(=O)C1 (single isomer, unassigned; (+)) [Example 120] | 91
10 | CC1c2cc(-c3c[nH]c4cc(F)ccc34)ccc2S(=O)(=O)N1C1CCNC(=O)C1 (single isomer, unassigned; (+)) [Example 121, (+)-4-(-5-(6-fluoro-1H-indol-3-yl)-3-methyl-1,1-dioxidobenzo[d]isothiazol-2(3H)-yl)piperidin-2-one] | 348
11 | CC1c2cc(-c3c[nH]c4cc(F)ccc34)ccc2S(=O)(=O)N1C1CNC(=O)C1 (single isomer, unassigned; (+)) [Example 123, (+)4-(5-(6-fluoro-1H-indol-3-yl)-3-methyl-1,1-dioxidobenzo[d]isothiazol-2(3H)-yl)pyrrolidin-2-one] | 501
12 | CC1c2cc(-c3c[nH]c4cc(F)ccc34)ccc2S(=O)(=O)N1C1CNC(=O)C1 (single isomer, unassigned; (+)) [Example 126, (+)-4-(5-(6-fluoro-1H-indol-3-yl)-3-methyl-1,1-dioxidobenzo[d]isothiazol-2(3H)-yl)pyrrolidin-2-one] | 77
13 | CNC(=O)CN1C(CO)c2cc(-c3c[nH]c4cc(F)ccc34)ccc2S1(=O)=O (single isomer, unassigned; (+)) [Example 128, (+)-2-(5-(6-fluoro-1H-indol-3-yl)-3-(hydroxymethyl)-1,1-dioxidobenzo[d]isothiazol-2(3H)-yl)-N-methylacetamide] | 79
14 | Cn1cnc(CN2C(CO)c3cc(-c4c[nH]c5cc(F)ccc45)ccc3S2(=O)=O)n1 (single isomer, unassigned; (+)) [Example 130, (+)-5-(6-fluoro-1H-indol-3-yl)-3-(hydroxymethyl)-2-((1-methyl-1H-1,2,4-triazol-3-yl)methyl)-2,3-dihydrobenzo[d]isothiazole 1,1-dioxide] | 112
15 | O=S1(=O)c2ccc(-c3c[nH]c4cc(F)ccc34)cc2C(CO)N1CCO (single isomer, unassigned; (+)) [Example 131, (+)-5-(6-fluoro-1H-indol-3-yl)-2-(2-hydroxyethyl)-3-(hydroxymethyl)-2,3-dihydrobenzo[d]isothiazole 1,1-dioxide] | 182
16 | CC1c2cc(-c3c[nH]c4cc(F)ccc34)ccc2S(=O)(=O)N1CCc1n[nH]c(=O)o1 (single isomer, unassigned; (+)) [Example 134, (+)-5-(2-(5-(6-fluoro-1H-indol-3-yl)-3-methyl-1,1-dioxidobenzo[d]isothiazol-2 (3H)-yl)ethyl)-1,3,4-oxadiazol-2(3H)-one] | 53
17 | CNCC1NS(=O)(=O)c2ccc(-c3c[nH]c4cc(F)ccc34)cc21 (single isomer, unassigned; (+)) [Example 138, (+)-5-(6-fluoro-1H-indol-3-yl)-3-((methylamino)methyl)-2,3-dihydrobenzo[d]isothiazole 1,1-dioxide] | 234
18 | CS(=O)(=O)NCC1NS(=O)(=O)c2ccc(-c3c[nH]c4cc(F)ccc34)cc21 (single isomer, unassigned; (+)) [Example 140, (+)-N-((5-(6-fluoro-1H-indol-3-yl)-1,1-dioxido-2,3-dihydrobenzo[d]isothiazol-3-yl)methyl)methanesulfonamide] | 285
19 | O=S1(=O)c2ccc(-c3c[nH]c4cc(F)ccc34)cc2C(CO)N1CC(O)CO (single isomer, unassigned; (+)) [Example 141, (+)-2-(2,3-dihydroxypropyl)-5-(6-fluoro-1H-indol-3-yl)-3-(hydroxymethyl)-2,3-dihydrobenzo[d]isothiazole 1,1-dioxide] | 830
20 | O=S1(=O)c2ccc(-c3c[nH]c4cc(F)ccc34)cc2C(CO)N1CC(O)CO (single isomer, unassigned; (+)) [Example 144, (+)-2-(2,3-dihydroxypropyl)-5-(6-fluoro-1H-indol-3-yl)-3-(hydroxymethyl)-2,3-dihydrobenzo[d]isothiazole 1,1-dioxide] | 190
21 | CNC(=O)C(C)N1C(C)c2cc(-c3c[nH]c4cc(F)ccc34)ccc2S1(=O)=O (single isomer, unassigned; (+)) [Example 146, (+)-2-(5-(6-fluoro-1H-indol-3-yl)-3-methyl-1,1-dioxidobenzo[d]isothiazol-2(3H)-yl)-N-methylpropanamide] | 54
22 | CCC1NS(=O)(=O)c2ccc(-c3c[nH]c4cc(F)ccc34)cc21 (single isomer, unassigned; (-)) [Example 4, (−)-3-ethyl-5-(6-fluoro-1H-indol-3-yl)-2,3-dihydrobenzo[d]isothiazole 1,1-dioxide] | 272
23 | CCCC1NS(=O)(=O)c2ccc(-c3c[nH]c4cc(F)ccc34)cc21 (single isomer, unassigned; (-)) [Example 7, (−)-5-(6-fluoro-1H-indol-3-yl)-3-propyl-2,3-dihydrobenzo[d]isothiazole 1,1-dioxide] | 1450
24 | CC(C)C1NS(=O)(=O)c2ccc(-c3c[nH]c4cc(F)ccc34)cc21 (single isomer, unassigned; (-)) [Example 9, (−)-5-(6-fluoro-1H-indol-3-yl)-3-isopropyl-2,3-dihydrobenzo-[d]isothiazole 1,1-dioxide] | 82
25 | O=S1(=O)NC(C2CC2)c2cc(-c3c[nH]c4cc(F)ccc34)ccc21 (single isomer, unassigned; (-)) [Example 11, (−)-3-cyclopropyl-5-(6-fluoro-1H-indol-3-yl)-2,3-dihydrobenzo[d]isothiazole 1,1-dioxide] | 103
26 | O=S1(=O)NC(CO)c2cc(-c3c[nH]c4cc(F)ccc34)ccc21 (single isomer, unassigned; (-)) [Example 12, (−)-5-(6-fluoro-1H-indol-3-yl)-3-(hydroxymethyl)-2,3-dihydrobenzo[d]isothiazole 1,1-dioxide] | 74
27 | NC(=O)C1NS(=O)(=O)c2ccc(-c3c[nH]c4cc(F)ccc34)cc21 (single isomer, unassigned; (-)) [Example 15, (−)-5-(6-fluoro-1H-indol-3-yl)-2,3-dihydrobenzo[d]-Isothiazole-3-carboxamide 1,1-dioxide] | 2070
28 | CNC(=O)C1NS(=O)(=O)c2ccc(-c3c[nH]c4cc(F)ccc34)cc21 (single isomer, unassigned; (-)) [Example 17, (−)-5-(6-fluoro-1H-indol-3-yl)-N-methyl-2,3-dihydrobenzo[d]isothiazole-3-carboxamide 1,1-dioxide] | 10000
